pIC50, pKi: −log10 of the molar value. The source made the active and inactive calls. The rule behind the calls is not given here.
Columns and labels:
[1] = target: T1, Replicase polyprotein 1ab (Severe acute respiratory syndrome coronavirus 2, UniProt P0DTD1); test: Inhibition of SARS-CoV2 main protease
[2] = Acute toxicity in overnight fasted Kunming mouse assessed as animal death at 1050 mg/kg, iv measured after 15 days; format: organism-based; conditions: in vivo, 360 h, time 15 day
[3] = Acute toxicity in overnight fasted Kunming mouse assessed as toxic signs at 1050 mg/kg, iv measured after 15 days; format: organism-based; conditions: in vivo, 360 h, time 15 day
[4] = Acute toxicity in iv dosed overnight fasted Kunming mouse assessed as minimum lethal dose measured after 15 days; format: organism-based; conditions: in vivo, 360 h, time 15 day
[5] = Toxicity in overnight fasted Kunming mouse assessed as animal death at 400 mg/kg, iv measured after 15 days; format: organism-based; conditions: in vivo, 360 h, time 15 day
[6] = Acute toxicity in overnight fasted Kunming mouse assessed as reduction in body weight at 1049 to 4000 mg/kg, iv measured after 15 days; format: organism-based; conditions: in vivo, 360 h, dose 1049-4000 mg/kg, time 15 day
[7] = target: T2, Cathepsin B (Homo sapiens, UniProt P07858); test: Inhibition of His-tagged recombinant human Cathepsin B expressed in HEK293 cells using Z-Leu-Arg-AMC as substrate incubated for 30 mins followed by substrate addition by fluorescence based analysis
[8] = target: T1, Replicase polyprotein 1ab; test: Inhibition of SARS-CoV-2 PLpro expressed in Escherichia coli BL21(DE3) using CBZ-RLRGG-AMC as substrate assessed as inhibition constant measured for 30 mins by fluorimetry based microplate reader analysis
[9] = target: T1, Replicase polyprotein 1ab; test: Inhibition of SARS-CoV-2 PLpro expressed in Escherichia coli BL21(DE3) using CBZ-RLRGG-AMC as substrate incubated for 30 mins followed by substrate addition by FRET assay
[10] = Acute toxicity in iv dosed overnight fasted Kunming mouse assessed as maximum tolerated dose measured after 15 days; format: organism-based; conditions: in vivo, time 15 day
[11] = target: Replicase polyprotein 1ab (Severe acute respiratory syndrome coronavirus 2) (UniProt P0DTD1); test: Inhibition of SARS-CoV-2 PLpro expressed in Escherichia coli BL21(DE3) using CBZ-RLRGG-AMC as substrate assessed as Kinact/Ki measured for 30 mins by fluorimetry based microplate reader analysis
[12] = Acute toxicity in overnight fasted Kunming mouse assessed as signs of abnormality at 1310 mg/kg, iv measured after 15 days; format: organism-based; conditions: in vivo, 360 h, time 15 day
[13] = Acute toxicity in Sprague-Dawley rat assessed as cellular swelling in hepatocytes at 300 mg/kg, po administered via gavage for 4 weeks followed by recovery for 4 weeks; format: organism-based; conditions: in vivo, 1344 h, time 8 weeks
[14] = target: Replicase polyprotein 1ab (Severe acute respiratory syndrome coronavirus 2) (UniProt P0DTD1); test: Inhibition of SARS-CoV-2 MPro expressed in Escherichia coli BL21(DE3) using Dabcyl-KLSAVLQSGERKM-Edans as substrate at 5 uM incubated for 30 mins followed by substrate addition by FRET assay
[15] = target: Replicase polyprotein 1ab (Severe acute respiratory syndrome coronavirus 2) (UniProt P0DTD1); test: Covalent binding affinity to Cys111 residue of SARS-CoV-2 PLpro expressed in Escherichia coli BL21(DE3) assessed as mass shift at 3 to 15 uM incubated for 4 hrs followed by trypsin digestion by mass spectrometry analysis; conditions: dose 3-15 µM
[16] = target: T3, Procathepsin L (Homo sapiens, UniProt P07711); test: Inhibition of human Cathepsin L using Z-Leu-Arg-AMC as substrate incubated for 30 mins followed by substrate addition by fluorescence based analysis
Target sequence in this assay (P07711 whole entry): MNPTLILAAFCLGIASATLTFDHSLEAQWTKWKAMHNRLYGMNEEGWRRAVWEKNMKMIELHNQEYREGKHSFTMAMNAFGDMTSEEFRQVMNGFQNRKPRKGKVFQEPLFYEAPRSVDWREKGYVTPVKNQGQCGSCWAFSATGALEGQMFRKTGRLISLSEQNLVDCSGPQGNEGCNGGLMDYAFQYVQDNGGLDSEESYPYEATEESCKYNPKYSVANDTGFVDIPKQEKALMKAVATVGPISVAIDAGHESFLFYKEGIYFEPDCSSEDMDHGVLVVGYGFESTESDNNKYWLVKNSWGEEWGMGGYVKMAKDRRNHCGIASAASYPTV

[17] = target: Replicase polyprotein 1ab (Severe acute respiratory syndrome coronavirus 2) (UniProt P0DTD1); test: Binding affinity to SARS-CoV-2 PLpro expressed in Escherichia coli BL21(DE3) assessed as mass shift at 30 uM incubated for 4 hrs by mass spectrometry analysis
[18] = test system: SARS-CoV-2; test: Antiviral activity against SARS-CoV-2 infected in Vero E6 cells assessed as reduction in viral nucleoprotein levels at 5 uM pretreated with Vero E6 cells for 1 hr followed by viral infection and further incubated for 1 followed by compound washout and measured after 48 hrs by Hoechst 33258 staining based fluorescence microscopy analysis; format: functional, organism-based; conditions: Severe acute respiratory syndrome coronavirus 2, time 2.0 hrs
[19] = test system: SARS-CoV-2; test: Antiviral activity against SARS-CoV-2 infected in Vero E6 cells assessed as reduction in viral RdRP RNA levels at 15 uM measured after 48 hrs by qRT-PCR analysis; format: functional, Severe acute respiratory syndrome coronavirus 2; design: scale not given: the % may be the effect or the level left
[20] = Acute toxicity in Sprague-Dawley rat assessed as cellular swelling in hepatocytes at 300 mg/kg, po administered via gavage for 4 weeks; format: organism-based; conditions: in vivo, 672 h
[21] = target: Replicase polyprotein 1ab (Severe acute respiratory syndrome coronavirus 2) (UniProt P0DTD1); test: Covalent binding affinity to Cys145 residue of SARS-CoV-2 MPro expressed in Escherichia coli BL21(DE3) assessed as trypsin digestion mediated mass shift by mass spectrometry analysis
[22] = Acute toxicity in Sprague-Dawley rat assessed as effect on food consumption at upto 300 mg/kg, po administered via gavage for 4 weeks followed by recovery for 4 weeks; format: organism-based; conditions: in vivo, 1344 h, time 8 weeks
[23] = target: Replicase polyprotein 1ab (Severe acute respiratory syndrome coronavirus 2) (UniProt P0DTD1); test: Inhibition of SARS-CoV-2 PLpro expressed in Escherichia coli BL21(DE3) using CBZ-RLRGG-AMC as substrate at 5 uM incubated for 30 mins followed by substrate addition by FRET assay
[24] = target: Serine/threonine-protein kinase pim-1 (Homo sapiens) (UniProt P11309); test: Inhibition of human PIM1 at 1 uM by DiscoverX KINOMEscan assay relative to control
[25] = test system: SARS-CoV-2; test: Antiviral activity against SARS-CoV-2 infected in Vero E6 cells assessed as reduction in viral nucleoprotein expression measured after 48 hrs by qRT-PCR analysis; format: functional, organism-based; conditions: Severe acute respiratory syndrome coronavirus 2, Vero C1008, 48 h
[26] = target: T1, Replicase polyprotein 1ab; test: Inhibition of SARS-CoV-2 MPro expressed in Escherichia coli BL21(DE3) using Dabcyl-KLSAVLQSGERKM-Edans as substrate assessed as inhibition constant measured for 30 mins by fluorimetry based microplate reader analysis
[27] = Acute toxicity in Sprague-Dawley rat assessed as reduction in body weight at upto 300 mg/kg, po administered via gavage for 4 weeks followed by recovery for 4 weeks; format: organism-based; conditions: in vivo, 1344 h, time 8 weeks
[28] = target: Replicase polyprotein 1ab (Severe acute respiratory syndrome coronavirus 2) (UniProt P0DTD1); test: Inhibition of SARS-CoV-2 MPro expressed in Escherichia coli BL21(DE3) using Dabcyl-KLSAVLQSGERKM-Edans as substrate assessed as Kinact/Ki measured for 30 mins by fluorimetry based microplate reader analysis
[29] = target: T1, Replicase polyprotein 1ab; test: Inhibition of SARS-CoV-2 MPro expressed in Escherichia coli BL21(DE3) using Dabcyl-KLSAVLQSGERKM-Edans as substrate incubated for 30 mins followed by substrate addition by FRET assay
[30] = target: Replicase polyprotein 1ab (Severe acute respiratory syndrome coronavirus 2) (UniProt P0DTD1); test: Inhibition of SARS-CoV-2 MPro expressed in Escherichia coli BL21(DE3) using Dabcyl-KLSAVLQSGERKM-Edans as substrate assessed as inactivation constant measured for 30 mins by fluorimetry based microplate reader analysis
[31] = test system: Vero C1008; test: Cytotoxicity against African green monkey Vero E6 cells infected with SARS-CoV-2 assessed as reduction in cell viability at 15 uM measured after 48 hrs by CCK-8 assay; format: toxicity, cell-based; conditions: chlorocebus sabaeus, vero c1008, 48 h
[32] = target: Replicase polyprotein 1ab (Severe acute respiratory syndrome coronavirus 2) (UniProt P0DTD1); test: Binding affinity to SARS-CoV-2 MPro expressed in Escherichia coli BL21(DE3) assessed as mass shift at 15 uM incubated for 4 hrs by mass spectrometry analysis
[33] = target: Replicase polyprotein 1ab (Severe acute respiratory syndrome coronavirus 2) (UniProt P0DTD1); test: Inhibition of SARS-CoV-2 PLpro expressed in Escherichia coli BL21(DE3) using CBZ-RLRGG-AMC as substrate assessed as inactivation constant measured for 30 mins by fluorimetry based microplate reader analysis
[34] = Solubility of compound in saline at higher dose; format: physicochemical; conditions: buffer
[35] = target: Serine/threonine-protein kinase PAK 2 (Homo sapiens) (UniProt Q13177); test: Inhibition of human PAK2 at 1 uM by DiscoverX KINOMEscan assay relative to control
[36] = Drug metabolism in normal saline assessed as conversion of closed form to open form by measuring rate constant at equilibrium at 2 mg/ml measured at 5 hrs by RP-HPLC analysis; format: ADME; conditions: buffer
[37] = target: T3, Procathepsin L; test: Irreversible inhibition of human Cathepsin L using Z-Leu-Arg-AMC as substrate at 300 nM incubated for 5 hrs followed by 100 fold dilution and incubated for 5 min and further incubated with substrate by fluorescence based analysis; conditions: time 305.0 min
Target sequence in this assay (P07711 114-333 limits assumed): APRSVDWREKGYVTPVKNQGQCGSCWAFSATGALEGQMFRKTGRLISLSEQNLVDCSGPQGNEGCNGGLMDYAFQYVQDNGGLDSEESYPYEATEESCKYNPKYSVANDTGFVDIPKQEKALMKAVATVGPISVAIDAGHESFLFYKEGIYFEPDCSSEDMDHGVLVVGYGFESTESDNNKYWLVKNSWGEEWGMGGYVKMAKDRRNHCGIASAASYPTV

[38] = target: T2, Cathepsin B; test: Reversible inhibition of His-tagged recombinant human Cathepsin B expressed in HEK293 cells using Z-Leu-Arg-AMC as substrate at 120 nM incubated for 2.5 hrs followed by 100 fold dilution and incubated for 5 min and further incubated with substrate by fluorescence based analysis; conditions: time 155.0 min
[39] = target: T1, Replicase polyprotein 1ab; test: Inhibition of SARS-CoV-2 PLpro

Sequence of Serine/threonine-protein kinase PAK 2 (Homo sapiens) (Q13177 whole entry): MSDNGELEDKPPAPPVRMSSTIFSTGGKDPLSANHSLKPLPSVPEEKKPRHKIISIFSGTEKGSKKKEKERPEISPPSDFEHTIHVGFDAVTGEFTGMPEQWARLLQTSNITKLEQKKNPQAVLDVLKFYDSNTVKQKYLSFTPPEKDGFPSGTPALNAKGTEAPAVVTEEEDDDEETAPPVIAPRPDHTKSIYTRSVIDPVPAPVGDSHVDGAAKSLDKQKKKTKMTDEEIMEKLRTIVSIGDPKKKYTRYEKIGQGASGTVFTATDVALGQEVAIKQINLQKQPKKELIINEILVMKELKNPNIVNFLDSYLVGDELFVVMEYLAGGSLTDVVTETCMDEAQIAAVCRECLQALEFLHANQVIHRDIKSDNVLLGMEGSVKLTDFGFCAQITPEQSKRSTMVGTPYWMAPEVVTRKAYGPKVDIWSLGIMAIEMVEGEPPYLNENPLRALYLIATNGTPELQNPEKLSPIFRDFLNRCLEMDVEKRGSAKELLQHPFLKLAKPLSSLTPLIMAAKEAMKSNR
Sequence of Serine/threonine-protein kinase pim-1 (Homo sapiens) (P11309 whole entry, looked up): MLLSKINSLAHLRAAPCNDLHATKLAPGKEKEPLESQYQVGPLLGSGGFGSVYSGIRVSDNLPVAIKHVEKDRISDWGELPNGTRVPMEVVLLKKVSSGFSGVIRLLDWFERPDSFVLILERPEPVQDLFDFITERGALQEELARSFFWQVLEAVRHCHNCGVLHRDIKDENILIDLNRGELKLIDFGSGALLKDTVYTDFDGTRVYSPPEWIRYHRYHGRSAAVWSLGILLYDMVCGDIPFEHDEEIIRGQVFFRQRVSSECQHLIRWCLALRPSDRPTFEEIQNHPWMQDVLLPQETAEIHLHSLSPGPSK

CC(C)C[C@H](NC(=O)[C@@H](NC(=O)OCc1ccccc1)C(C)C)C(=O)N[C@@H](C[C@@H]1CCNC1=O)C(=O)c1nc2ccccc2s1
pKi [1]: 7.84

Cl.O=C1C=C(Nc2ccccc2N2CCNCC2)C2=NS(=O)(=O)c3cccc1c32
Activity [2]: Non-Toxic | Activity [3]: Non-Toxic | MLC [4]: 1300 mg/kg | Activity [5]: Non-Toxic | Activity [6]: Non-Toxic | pIC50 [7]: 5.06 | pKi [8]: 4.80 | pIC50 [9]: 6.00 | MTD at 360 h [10]: 1000 mg/kg | Ratio [11]: 500 M⁻¹ s⁻¹ | Activity [12]: Non-Toxic | Activity [13]: Non-Toxic | inhibition [14]: Active | Activity [15]: Active | pIC50 [16]: 5.66 | Activity [17]: 410 Da | Activity [18]: Active | Activity [19]: 99.9% | Activity [20]: Toxic | Activity [21]: Active | Activity [22]: Non-Toxic | inhibition [23]: Active | inhibition [24]: 35% | pIC50 [25]: 5.41 | pKi [26]: 5.15 | Activity [27]: Non-Toxic | Ratio [28]: 710 M⁻¹ s⁻¹ | pIC50 [29]: 6.92 | Kinact [30]: 0.0048 s⁻¹ | Activity [31]: Non-Toxic | Activity [32]: 392 Da | Kinact [33]: 0.0081 s⁻¹ | solubility [34]: Insoluble | inhibition [35]: 10% | Ke [36]: 0.012 min⁻¹ | inhibition [37]: Active | inhibition [38]: Active

COC(=O)/C=C/C(=O)NNC(=O)/C=C/c1ccccc1C(=O)N[C@H](C)c1cccc2ccccc12
pIC50 [39]: 7.03

CNS(=O)(=O)c1cccc2c1C(=O)C(Nc1ccccc1)=CC2=O
inhibition [23]: Active

CC1=NC2C(=O)C(Nc3ccc(C)cc3)=CC(=O)C2S1 (stereo unspecified)
pIC50 [39]: 6.41
